Reference: the supplement of paper PMC10307832

How the values were obtained:
Assay in all cases: relative viability (nuclei count vs DMSO), 5 days (fraction); higher = more cells survive
[1] = compound: CCn1c(-c2nonc2N)nc2cnc(Oc3cccc(NC(=O)c4ccc(OCCN5CCOCC5)cc4)c3)cc21 + CS(=O)(=O)CCNCc1ccc(-c2ccc3ncnc(Nc4ccc(OCc5cccc(F)c5)c(Cl)c4)c3c2)o1 [Lapatinib] (partner 2 µM)
Procedure, shortened: (§1)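 Values are medians from duplicate plates. Each reflects relative viability, defined as the nuclei count of treated wells over that of vehicle wells. Lung cancer cell lines in 1536-well plates were pin-tool dosed one day after seeding with one drug alone or with a fixed anchor-drug dose plus five library-drug doses (not always all listed) in √10 steps, then fixed, stained and imaged at 4× after 5 days.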

[2] = compound: N=C1NC(=O)/C(=C/c2ccc(O)cc2)S1 [Mirin] + CC1(C)CCC(c2ccc(Cl)cc2)=C(CN2CCN(c3ccc(C(=O)NS(=O)(=O)c4ccc(N[C@H](CCN5CCOCC5)CSc5ccccc5)c(S(=O)(=O)C(F)(F)F)c4)cc3)CC2)C1 [Navitoclax] (partner 0.5 µM)
Procedure, shortened: as §1

[3] = compound: N=C1NC(=O)/C(=C/c2ccc(O)cc2)S1 [Mirin] + C[C@]1(O)C[C@@H](c2nc(-c3ccc4ccc(-c5ccccc5)nc4c3)c3c(N)nccn32)C1 [Linsitinib] (partner 1 µM)
Procedure, shortened: as §1

[4] = compound: CCC1=CN=CN=C1N2CCN(CC2)CC3=NC4=C(N3)C=C(C=C4)C(F)(F)F + CS(=O)(=O)N1CCN(Cc2cc3nc(-c4cccc5[nH]ncc45)nc(N4CCOCC4)c3s2)CC1 [Pictilisib] (partner 1 µM)
Procedure, shortened: as §1

Cell Line	relative viability ([1]; first compound 0.04 µM)	relative viability ([1]; first compound 0.1265 µM)	relative viability ([1]; first compound 0.4 µM)	relative viability ([1]; first compound 1.265 µM)	relative viability ([1]; first compound 4 µM)	relative viability ([2]; first compound 0.25 µM)	relative viability ([2]; first compound 0.7906 µM)	relative viability ([2]; first compound 2.5 µM)	relative viability ([2]; first compound 7.906 µM)	relative viability ([2]; first compound 25 µM)	relative viability ([3]; first compound 0.25 µM)	relative viability ([3]; first compound 0.7906 µM)	relative viability ([3]; first compound 2.5 µM)	relative viability ([3]; first compound 7.906 µM)	relative viability ([3]; first compound 25 µM)	relative viability ([4]; first compound 0.04 µM)	relative viability ([4]; first compound 0.1265 µM)	relative viability ([4]; first compound 0.4 µM)	relative viability ([4]; first compound 1.265 µM)	relative viability ([4]; first compound 4 µM)
SW 1573	1.21	0.904	0.685	0.627	0.353	0.989	0.98	0.825	0.88	0.608	0.815	0.728	0.79	0.731	0.648	0.441	0.43	0.44	0.474	0.426
LOU-NH91	0.817	0.77	0.537	0.518	0.517	0.681	–	0.673	0.718	0.76	0.956	–	1.01	0.936	1.04	0.501	0.533	0.54	0.47	0.551
LXF-289	1.04	1.02	0.856	0.737	0.645	0.934	0.986	0.97	1.01	1.13	0.971	1.09	1	1.03	1.02	0.744	0.793	0.762	0.646	0.754
NCI-H1299	0.951	0.86	0.836	0.724	0.625	0.998	1.1	1.09	1.03	1.2	0.984	0.966	0.978	0.879	1.2	0.819	0.728	0.972	0.752	0.673
HARA	0.826	0.732	0.27	0.217	0.213	1.07	1.21	1.14	1.28	1.2	0.935	0.994	0.988	1.02	0.738	0.311	0.326	0.321	0.302	0.471
LU99A	1.15	0.845	0.641	0.862	0.694	0.706	0.677	0.92	0.742	0.542	0.515	0.472	0.508	0.46	0.421	0.369	0.287	0.363	0.346	0.321
201T	1.07	0.967	0.78	0.911	0.868	1.18	1.27	1.18	1.32	1.33	1	1.04	1.01	1.02	1.09	0.708	0.652	0.658	0.514	0.801
HCC-827	0.195	0.273	0.197	0.251	0.21	1.01	1	1	1.07	1.27	0.959	0.972	0.949	0.935	1.18	0.978	1.04	1.03	0.957	0.994
NCI-H1666	0.792	0.777	0.592	0.498	0.329	0.921	0.941	1.03	0.719	0.59	0.734	0.853	0.791	0.646	0.517	0.569	0.402	0.417	0.498	0.501
NCI-H1915	1.11	0.949	0.956	0.611	0.387	0.775	–	0.76	0.743	0.866	1.12	–	1.12	1.06	1.19	0.916	0.899	0.931	0.687	0.963
NCI-H2009	1.02	0.957	0.575	0.312	0.314	1.17	1.3	1.18	1.11	1.2	1.17	1.21	1.18	1.15	1.34	0.821	0.824	0.826	0.514	0.544
ChaGo-K-1	–	–	–	–	–	0.974	–	0.997	0.849	0.85	–	–	–	–	–	–	0.707	0.63	0.668	0.557
COR-L 105	0.327	0.412	0.278	0.288	0.297	1.02	0.817	0.884	0.703	0.719	0.984	1.02	1.13	1.09	0.846	0.372	0.376	0.385	0.247	0.464
NCI-H2170	0.261	0.278	0.274	0.258	0.27	0.698	0.51	0.659	0.521	0.375	–	–	–	–	–	0.303	0.304	0.274	0.289	0.325
A549	1.25	0.916	0.884	0.118	0.107	1.09	1.38	1.08	1.32	1.31	0.508	0.58	0.544	0.503	0.511	0.547	0.488	0.467	0.507	0.426
NCI-H1975	0.778	0.729	0.477	0.435	0.331	1.05	1.07	1.11	1.14	0.994	0.925	0.911	1.07	0.989	1.04	0.311	0.307	0.268	0.287	0.288
Calu-6	1.22	0.932	0.985	0.616	0.517	0.879	1	0.839	0.806	0.794	0.914	0.908	0.903	0.856	0.88	1.07	0.877	0.865	0.822	0.73
NCI-H322M	0.572	0.659	0.437	0.876	0.783	1.26	1.28	1.25	1.22	1.31	0.891	1.08	0.976	1.04	0.651	0.581	0.484	0.507	0.381	0.524

Cell Line	relative viability ([1]; first compound 0.04 µM)	relative viability ([1]; first compound 0.1265 µM)	relative viability ([1]; first compound 0.4 µM)	relative viability ([1]; first compound 1.265 µM)	relative viability ([1]; first compound 4 µM)	relative viability ([2]; first compound 0.25 µM)	relative viability ([2]; first compound 0.7906 µM)	relative viability ([2]; first compound 2.5 µM)	relative viability ([2]; first compound 7.906 µM)	relative viability ([2]; first compound 25 µM)	relative viability ([3]; first compound 0.25 µM)	relative viability ([3]; first compound 0.7906 µM)	relative viability ([3]; first compound 2.5 µM)	relative viability ([3]; first compound 7.906 µM)	relative viability ([3]; first compound 25 µM)	relative viability ([4]; first compound 0.04 µM)	relative viability ([4]; first compound 0.1265 µM)	relative viability ([4]; first compound 0.4 µM)	relative viability ([4]; first compound 1.265 µM)	relative viability ([4]; first compound 4 µM)
NCI-H2405	1.19	0.661	0.194	0.336	0.316	0.812	0.97	0.742	0.641	0.73	0.891	1	0.963	0.895	0.789	0.486	0.379	0.43	–	0.575
HCC-44	1.07	1.1	0.622	0.342	0.368	1	0.967	0.916	0.945	0.989	0.64	0.789	0.703	0.711	0.501	0.584	0.593	0.557	0.477	0.596
HCC-78	0.905	0.906	0.461	0.816	0.756	0.758	0.712	0.866	0.847	0.674	0.537	0.585	0.519	0.445	0.475	0.143	0.299	0.203	0.206	0.178
COR-L23	1.16	0.714	0.335	0.198	0.143	1.02	1.06	1.04	1.07	0.966	1.01	1.16	1.02	0.955	0.892	0.696	0.71	0.676	0.632	0.769
NCI-H1993	0.797	0.798	–	0.754	0.734	1.03	1.02	0.913	0.932	0.749	0.739	0.746	0.698	0.727	0.756	0.837	0.808	0.708	0.765	0.834
NCI-H3122	1.1	1.04	0.891	0.804	0.691	1.01	1.1	1.01	1.09	1.15	0.994	1.04	1.06	1.15	1.05	0.69	0.578	0.609	0.665	0.659
NCI-H2228	1.79	0.81	0.954	0.756	0.727	1.2	0.972	1.35	1.18	1.03	0.702	0.64	0.783	0.831	0.553	0.383	0.397	0.297	0.309	0.436
NCI-H1944	0.822	0.699	–	0.691	0.553	1.03	–	1.07	1.08	0.861	1.11	–	1.25	1.05	0.752	0.361	0.335	0.325	–	0.328
NCI-H358	0.474	0.479	0.29	0.525	0.316	–	–	–	–	–	0.734	0.719	0.836	0.57	0.373	0.4	0.282	0.349	0.289	0.359
NCI-H1734	1.03	0.93	0.6	0.38	0.403	0.838	0.746	0.793	0.742	0.771	0.851	0.852	0.875	0.739	0.765	0.387	0.449	0.431	–	0.473
A-427	1.2	1.04	0.903	0.993	0.582	0.942	–	0.955	0.941	1.11	1.11	–	1.19	1.19	1.2	0.675	0.685	0.682	0.637	0.574
ABC-1	1.3	0.997	–	–	1.08	–	–	–	–	–	0.771	0.93	0.773	1.04	0.455	0.587	0.955	0.69	0.665	0.646
NCI-H650	1.29	0.686	0.5	0.269	0.472	–	–	–	–	–	0.942	–	0.941	–	0.956	0.875	0.82	0.983	0.736	0.841
LCLC-103H	–	–	–	–	–	–	–	–	–	–	1.12	1.11	1.08	1.22	1.13	0.599	0.614	0.499	0.435	0.559
NCI-H1563	1.01	0.822	0.804	0.782	0.673	–	–	–	–	–	1.16	1.32	1.19	1.18	1.19	0.643	0.684	0.65	0.616	0.698
NCI-H661	0.47	0.457	0.457	0.39	0.385	–	–	–	–	–	0.432	0.58	0.613	0.451	0.414	0.358	0.402	0.412	–	0.366
NCI-H1650	1.04	0.747	0.74	0.671	0.694	1.05	1.53	1.21	1.21	1.06	–	–	–	–	–	0.525	0.586	0.558	0.306	0.818
NCI-H441	–	–	–	–	–	0.49	0.802	0.571	0.447	0.483	0.503	0.493	0.599	0.45	0.48	0.571	0.435	0.451	0.435	0.418
